In patent US20230277491A1, “PHARMACEUTICAL COMBINATION COMPRISING GLYCOLIC ACID AND L-ALANINE” (priority 2020, published 2023):

Tests used:
dopaminergic neurons = assay: Survival of dopaminergic neurons with paraquat 12.5 μM challenge (Example 5, FIGS. 19, 20); format: cell-based, mouse; details: for number of TH positive neurons normalized to the control treatment: FIG. 19
Protocol: Dopaminergic neurons were isolated and plated at a concentration of 1.000.000 cells/ml (100 μl/well) in a 96 well plate and cultured in medium with one or more of the various factors indicated, as described in the examples below. The survival of dopaminergic neurons in the presence and absence of various agents of the invention, either with or without paraquat challenge, is shown by the number of TH positive neurons normalized to the control treatment.
Dopaminergic neurons were isolated and plated at a concentration of 1.000.000 cells/ml (100 μl/well) in a 96 well plate. After 3-4 hours incubation at 37° C., 20 μl of medium was removed from each well. (VF=80 μl). Changes in medium and start point of the treatment were on the following day in vitro (DIV). The following protocol was employed to assess the survival of dopaminergic neurons in the presence and absence of various agents of the inventive combination, either with or without paraquat challenge. • DIV.1: Change half of medium N2 (40 μl) with fresh medium N2. • DIV.3: Change half of the medium and start with medium (control) or with medium A containing PB (0.15 mM) and TUDCA (0.5 mM), or with Medium A containing GA (normally 1 mM, 3 mM, or 10 mM) or with Medium A containing GA (1 mM or 3 mM) and PB (0.15 mM) or with Medium A containing GA (5 mM) and TUDCA (0.5 mM) or with Medium A containing PB (0.15 mM). Medium A is N2 medium but without FBS and N2-Supplement. • DIV.5: Second round of control or treatment with different treatments. Half of the medium (40 μl) was replaced by fresh medium A with the different agents. • DIV.7: Paraquat 12.5 μM treatment starts alone or in combination with the treatments explained above. Half of the medium (40 μl) was replaced by fresh medium A with the different treatment combinations or without (control). • DIV.9: Second day of treatment with Paraquat (PQ) 12.5 μM in addition to the other treatments as explained above. • DIV.11: Fixation 2% of PFA during 20 min at 37° C. or overnight at 4° C.
The effect of the different treatments on dopaminergic neurons survival upon exposure to paraquat was assessed through of TH+ neurons after treatment. Briefly, neurons were fixed using 2% paraformaldehyde for immunocytochemical analysis after treatment. Dopaminergic TH^+ neurons per well were identified and counted using an inverted fluorescence microscope (Olympus) under a 20× objective.

cortical neurons = assay: Calcium imaging on primary cortical neurons (SOCE, glutamate-triggered action potential); format: cell-based, mouse; details: FIG. 15
Protocol: GA enhances SOCE and calcium influx during glutamate-triggered action potentials. Fluorescent microscopy images in a show the effect of calcium, glutamate and ionomycin on intracellular calcium in Fluo-4 AM charged cortical neurons at different time points.
Primary cortical neuronal cell cultures were prepared from E15.5 embryos. Briefly, brain cortex from E15.5 pregnant wild type C57Bl/6J or PARK-7^−/− mice were dissected and placed in cold HBSS without Ca2+ and Mg2+(Sigma Aldrich H6648, Germany, EU). Once freed from all other cerebral structures, cortex were placed in an empty petri dish, sliced with the help of a scalpel and trypsinized using a 1:1 mixture of Trypsin (Gibco 25200-056):HBSS at 37° C. for 7 min. The samples were then centrifuged for 4 min. at 800 rpm and the supernatant was replaced with plating medium (89% Neurobasal A, 8.9% FBS, 0.9% L-glutamine, 0.9% N2 supplement and 0.4% P/S). […]
Variations in the Fluo-4 AM fluorescence during Ca^2+ and/or glutamate addition were analyzed using FIJI Image Analysis Freeware. The ROIs were determined using the standard deviation function for the stack of images before and after the addition of 1.8 mM CaCl2 (for changes in intracellular Ca^2+) or before and after the addition of glutamate. […] Once all ROIs were identified and selected, the MFI of each ROI for each time-point was measured with the measure function of the program to generate a matrix with the raw MFI values for each ROI for each time point. […] To determine the effect of GA and DL on Ca^2+ influx after CaCl2 addition and after glutamate addition, all ROIs where normalized using a max-min normalization as previously described: ([Ca^2+]Ca—[Ca^2+]t0/([Ca^2+]ionomycine-[Ca^2+]t0) Once the new matrix with the normalized values was generated, we determined the area under the curve (AUC) in excel using the formula: (Y1+Y2)/2*(X2−X1). The AUC was then obtained as the sum of all the generated values.

[1] = male Wistar rats; cited from earlier work

O=C(O)CO [GA, 2-hydroxyethanoic acid]
number of TH positive neurons normalized to the control treatment (dopaminergic neurons; PQ 12.5 μM + 1 mM GA): 0.65 | number of TH positive neurons normalized to the control treatment (dopaminergic neurons; PQ 12.5 μM + 3 mM GA): 0.71 | survival of dopaminergic neurons (rescue) (dopaminergic neurons; PQ 12.5 μM + 5 mM GA alone): certain rescue | intracellular calcium during the glutamate-triggered action potential (cortical neurons; 2.5 mM GA): higher increases in intracellular calcium during the action potential | storage operated calcium entry (SOCE) (cortical neurons; 2.5 mM GA, after addition of calcium): increased storage operated calcium entry (SOCE) | calcium transients (cortical neurons): bigger calcium transients | kidney findings after administration [1]: formation of hyperoxaluria and calcium oxalate precipitates
